From US20220233566A1, “NOVEL CARBONATE COMPOUND HAVING PYRROLOPYRIMIDINE SKELETON OR PHARMACEUTICALLY ACCEPTABLE SALT THEREOF” (TAIHO PHARMACEUTICAL CO., LTD., priority 2019, published 2022)

Legend:
Type in all cases: cell-based
[1] = Growth suppression activity in human tumor cell line; settings: 72 h; Human prostate cancer, DUI45, 3 days
Protocol: (§1) Human tumor cell lines different in type were suspended in mediums, seeded in individual wells of a multi-well plate and cultured. On the day after initiation of culture, serially diluted solutions of a compound were added. Culture was carried out for further 3 days. Cells were counted by a CellTiter-Glo (manufactured by Promega KK) in accordance with the protocol recommended by Promega KK. Cell viability was calculated in accordance with the equation shown below and the concentration (IC50 (μM)) of the compound at which 50% of cell growth is inhibited was obtained.
(§2) T: Intensity of light emitted from a well containing a compound
(§3) C: Intensity of light emitted from a well containing no compound

A172 = test: as above; settings: A 172, 72 h; Human brain tumor, A172, 3 days
Protocol: as §1, §2, §3

A2780 = test: as above; settings: 72 h; Human ovary cancer, A2780, 3 days
Protocol: as §1, §2, §3

A673 = test: as above; settings: 72 h; Human bone tumor, A673, 3 days
Protocol: as §1, §2, §3

BC3 = test: as above; settings: BC-3, 72 h; Human hematopoietic organ tumor, BC3, 3 days
Protocol: as §1, §2, §3

BHL-89 = test: as above; settings: 72 h; Human hematopoietic organ tumor, BHL-89, 3 days
Protocol: as §1, §2, §3

CA9-22 = test: as above; settings: 72 h; Human head and neck cancer, CA9-22, 3 days
Protocol: as §1, §2, §3

CAPAN2 = test: as above; settings: Capan-2, 72 h; Human pancreatic cancer, CAPAN2, 3 days
Protocol: as §1, §2, §3

CCRFCEM = test: as above; settings: CCRF-CEM, 72 h, Human hematopoietic organ tumor, 3 days
Protocol: as §1, §2, §3

CFPAC1 = test: as above; settings: CFPAC-1, 72 h; Human pancreatic cancer, CFPAC1, 3 days
Protocol: as §1, §2, §3

COL0792 = test: as above; settings: 72 h; Human skin cancer, COL0792, 3 days
Protocol: as §1, §2, §3

H2170 = test: as above; settings: NCI-H2170, 72 h; Human lung cancer, H2170, 3 days
Protocol: as §1, §2, §3

H226 = test: as above; settings: NCI-H226, 72 h; Human lung cancer, H226, 3 days
Protocol: as §1, §2, §3

H23 = test: as above; settings: NCI-H23, 72 h; Human lung cancer, H23, 3 days
Protocol: as §1, §2, §3

H441 = test: as above; settings: NCI-H441, 72 h; Human lung cancer, H441, 3 days
Protocol: as §1, §2, §3

H460 = test: as above; settings: NCI-H460, 72 h; Human lung cancer, H460, 3 days
Protocol: as §1, §2, §3

H69 = test: as above; settings: NCI-H69, 72 h; Human lung cancer, H69, 3 days
Protocol: as §1, §2, §3

HCC1806 = test: as above; settings: 72 h; Human breast cancer, HCC1806, 3 days
Protocol: as §1, §2, §3

HCT116 = test: as above; settings: HCT-116, 72 h; Human colorectal cancer, HCT116, 3 days
Protocol: as §1, §2, §3

HL60 = test: as above; settings: HL-60, 72 h; Human hematopoietic organ tumor, HL60, 3 days
Protocol: as §1, §2, §3

HS746T = test: as above; settings: 72 h, Human stomach cancer, 3 days
Protocol: as §1, §2, §3

HT29 = test: as above; settings: HT-29, 72 h; Human colorectal cancer, HT29, 3 days
Protocol: as §1, §2, §3

K562 = test: as above; settings: 72 h; Human hematopoietic organ tumor, K562, 3 days
Protocol: as §1, §2, §3

LN229 = test: as above; settings: LN-229, 72 h; Human brain tumor, LN229, 3 days
Protocol: as §1, §2, §3

MCF7 = test: as above; settings: 72 h; Human breast cancer, MCF7, 3 days
Protocol: as §1, §2, §3

MES01 = test: as above; settings: 72 h; Human lung cancer, MES01, 3 days
Protocol: as §1, §2, §3

Mero48a = test: as above; settings: 72 h, Human lung cancer, 3 days
Protocol: as §1, §2, §3

Mero82 = test: as above; settings: 72 h; Human lung cancer, Mero82, 3 days
Protocol: as §1, §2, §3

Mero83 = test: as above; settings: 72 h; Human lung cancer, Mero83, 3 days
Protocol: as §1, §2, §3

N87 = test: as above; settings: 72 h; Human stomach cancer, N87, 3 days
Protocol: as §1, §2, §3

NUGC3 = test: as above; settings: NUGC-3, 72 h; Human stomach cancer, NUGC3, 3 days
Protocol: as §1, §2, §3

RPMI8226 = test: as above; settings: RPMI-8226, 72 h; Human hematopoietic organ tumor, RPMI8226, 3 days
Protocol: as §1, §2, §3

SPC111 = test: as above; settings: 72 h; Human lung cancer, SPC111, 3 days
Protocol: as §1, §2, §3

SW48 = test: as above; settings: 72 h; Human colorectal cancer, SW48, 3 days
Protocol: as §1, §2, §3

SW620 = test: as above; settings: SW-620, 72 h; Human colorectal cancer, SW620, 3 days
Protocol: as §1, §2, §3

Nc1ncnc2c1c(Br)cn2[C@@H]1O[C@H](CO)[C@@H](O)[C@@H]1F [Comparative Example 1, (2R,3R,4S,5R)-5-(4-amino-5-bromo-7H-pyrrolo[2,3-d]pyrimidin-7-yl)-4-fluoro-2-(hydroxymethyl) tetrahydrofuran-3-ol]
IC50 [1]: 90 nM | IC50 (A172): 140 nM | IC50 (A2780): 50 nM | IC50 (A673): 130 nM | IC50 (BC3): 20 nM | IC50 (BHL-89): 230 nM | IC50 (CA9-22): 80 nM | IC50 (CAPAN2): 50 nM | IC50 (CCRFCEM): 50 nM | IC50 (CFPAC1): 110 nM | IC50 (COL0792): 890 nM | IC50 (H2170): 260 nM | IC50 (H226): 130 nM | IC50 (H23): 50 nM | IC50 (H441): 140 nM | IC50 (H460): 80 nM | IC50 (H69): 110 nM | IC50 (HCC1806): 130 nM | IC50 (HCT116): 120 nM | IC50 (HL60): 300 nM | IC50 (HS746T): 250 nM | IC50 (HT29): 110 nM | IC50 (K562): 110 nM | IC50 (LN229): 630 nM | IC50 (MCF7): 80 nM | IC50 (MES01): 410 nM | IC50 (Mero48a): 160 nM | IC50 (Mero82): 460 nM | IC50 (Mero83): 350 nM | IC50 (N87): 30 nM | IC50 (NUGC3): 70 nM | IC50 (RPMI8226): 340 nM | IC50 (SPC111): 360 nM | IC50 (SW48): 130 nM | IC50 (SW620): 230 nM
